Reference: patent US20240285765A1, “PHTHALOCYANINE DYE COMPOUNDS, CONJUGATES AND METHODS OF USE THEREOF” (Rakuten Medical, Inc., priority 2021, published 2024)
Read-outs that look alike come from different tables or passages of the source.

Key:
[1] = Thermodynamic solubility in pH 7.4 DPBS, UV quantification; format: physicochemical; details: Dulbecco's phosphate-buffered saline (DPBS), aqueous buffer, thermodynamic from solid, room temperature (25° C.)
Procedure: A working 1 mM stock solution of the test compound in DMSO was prepared from a 10 mM DMSO stock solution. A spectrum scan from 220 nm to 1000 nm of this working solution was performed in a 96-well UV plate to identify the wavelength maxima. […] The selected stock solution was serially diluted in DMSO to confirm linearity and generate a seven to eight-point calibration curve. Of note, only linear points were considered in the curve.
The resulting solution was placed on a RotoSpin™ shaker at 50 rpm for 24 hours at room temperature (25° C.). The solution was then filtered using a 0.45 μm PVDF filter to remove any insoluble fraction of the compound. A 150 μL aliquot of the filtrate was taken for quantification using UV spectroscopy (POLARstar Omega BMG Plate Reader). The optical densities of the standard solutions and the test sample were acquired at the same wavelength maxima. The test sample concentration was calculated from its optical density using the linearity/calibration curve.

[2] = Singlet oxygen quantum yield, indirect method with chemical quencher (DPBF or ADMA); format: physicochemical; details: quencher ADMA, aqueous media, 670 nm LED 5 mW/cm^2, reference AlPcSmix
From the text: Photogeneration quantum yields of singlet oxygen (ΦΔ) were obtained by an indirect method, using either diphenylisobenzofuran (DBPF) or anthracene-9,10-bis-methylmalonate (ADMA) as chemical quenchers in either N,N-dimethylformamide or aqueous media, respectively. Typically, a solution of the phthalocyanine and the quencher was irradiated with a red LED lamp (670 nm) at 5 mW/cm^2. The initial DPBF or ADMA concentrations were kept the same for both the reference and the test samples. The degradation of the DPBF band at 414 nm or ADMA at 401 nm was monitored in a Varian Cary® 50 UV-Vis spectrophotometer, every five seconds in the case of DPBF (up to 30 seconds) and every minute in the case of ADMA (up to five minutes). ZnPc (ΦΔ=0.67) and AlPcSmix (ΦΔ=0.42) were used as references in N,N-dimethylformamide or aqueous media, respectively.
The relative method shown by Eq. (1) was employed for calculations of the ΦΔ:
[formula] • where ΦΔ and ΦΔref are the ^1O2 generation quantum yields for the sample and reference, respectively, m and mref are the DPBF or ADMA photobleaching rates in the presence of the phthalocyanine of the invention and the reference, respectively, and I and Iref are the rates of light absorption by the phthalocyanine derivative and reference, respectively. Concentrations of the test compound and reference were chosen such that their respective absorptions at the irradiation wavelength were the same.

BxPC3 cells = experiment: Cell killing of free dye PIT, CellTox Green Cytotoxicity Assay; format: cell-based; details: BxPC3, 0-1 μg/mL free dye, 690 nm laser 64 J/cm2, 24 hours after light
Procedure: The PIT killing activity of free dyes were evaluated using the molecules synthesized as Example 12 and Example 13. BxPC3 cells (#CRL-1687, ATCC, Manassas VA) were plated, 5,000 cells per well, in RPMI-1640 media supplemented with 10% FBS and 1% Penicillin/Streptomycin (complete culture media) in a deep-well 96-well plate. Following overnight incubation at 37° C., the culture media were removed and the cells were incubated in 100 μL complete media with 1, 0.333, 0.111, 0.03704, 0.01235, 0.00412, 0.00137, or 0 μg/mL Example 12, Example 13, or IRDye 700DX carboxylate (control) for one hour at 4° C. […]
The effect of different treatment regimens on cell death was measured using the CellTox™ Green Cytotoxicity Assay (Cat No: G8742, Promega, Madison, WI). […] The CellTox™ Green fluorescence signal was measured at 24 hours after light treatment using a fluorescence plate reader. The cells were then lysed with diluted lysis solution (Cat No: G1821, Promega, Madison, WI), incubated at 37° C. for 30 minutes, and the CellTox™ Green fluorescence signal was measured again post-lysis. The percentages of dead cells were calculated by taking the ratio between background (1× CellTox™ Green in complete culture media without cells)-subtracted CellTox™ Green signal per well prior to and post lysis and multiplying the ratio by 100.

[3] = Kinetic (aqueous) solubility in pH 7.4 DPBS, UV quantification; details: kinetic; pH 7.4 DPBS, 4 hours, room temperature (25° C.)
[4] = UV-Vis absorption spectra; format: physicochemical
Procedure: The UV-Vis absorption spectra of the compounds in either an organic solvent or aqueous media was recorded in a Varian Cary® 50 UV-Vis spectrophotometer. Compounds of the invention show absorption in the 600-800 nm region of the spectra.

[5] = cited from earlier work

Row | Molecule | solubility thermodynamic at 24 h [1] | ΦΔ (singlet oxygen quantum yield) [2] | cell death (cytotoxicity) following illumination (BxPC3 cells) | Solubility* (kinetic solubility) [3] | also measured
1 | C[Si](C)(CCC[N+](CCCCS(=O)(=O)O)(CCCCS(=O)(=O)O)CCCCS(=O)(=O)O)O[Si-2]123(O[Si](C)(C)CCC[N+](CCCCS(=O)(=O)O)(CCCCS(=O)(=O)O)CCOCCOCCOCCOCCC(=O)O)n4c5c6ccccc6c4N=C4c6ccccc6C(=[N+]41)N=c1c4ccccc4c(n12)=NC1=[N+]3C(=N5)c2ccccc21.[Na+].[Na+].[Na+].[Na+] [Example 22, Sodium 2-((19-((dimethyl(3-(tris(4-sulfonatobutyl)ammonio)propyl)silyl)oxy)-19H-6,11-(azeno)-17,21-(azeno[3]episoindoloazeno)benzo[7,8][1,3,5,10]tetraaza[2]silacycloundecino[4,3-a:11,1-a′]diisoindol-19-yl)oxy)-2-methyl-6,6-bis(4-sulfonatobutyl)-9,12,15,18-tetraoxa-6-aza-2-silahenicosan-6-ium-21-oate] | > 100 µg/mL | – | – | – | –
2 | 3-((6-((λ^5-azaneyl)oxy)-6-oxohexyl)(3-(((λ5-azaneyl)oxy)sulfonyl)propyl)(3-(((19-(((3-(bis(3-(((λ5-azaneyl)oxy)sulfonyl)propyl)(3-sulfonatopropyl)ammonio)propyl)dimethylsilyl)oxy)-19H-6,11-(azeno)-17,21-(azeno[3]episoindoloazeno)benzo[7,8][1,3,5,10]tetraaza[2]silacycloundecino[4,3-a:11,1-a′]diisoindol-19-yl)oxy)dimethylsilyl)propyl)ammonio)propane-1-sulfonate [Example 12] | – | B (B: >0.5) | dose-dependent cytotoxicity | C (C: >100 μg/mL) | –
3 | 4-((6-((λ5-azaneyl)oxy)-6-oxohexyl)(4-(((λ5-azaneyl)oxy)sulfonyl)butyl)(3-(((19-(((3-(bis(4-(((λ5-azaneyl)oxy)sulfonyl)butyl)(4-sulfonatobutyl)ammonio)propyl)dimethylsilyl)oxy)-19H-6,11-(azeno)-17,21-(azeno[3]episoindoloazeno)benzo[7,8][1,3,5,10]tetraaza[2]silacycloundecino[4,3-a:11,1-a′]diisoindol-19-yl)oxy)dimethylsilyl)propyl)ammonio)butane-1-sulfonate [Example 13] | – | B (B: >0.5) | dose-dependent cytotoxicity | C (C: >100 μg/mL) | maximum UV absorbance (UVmax) [4]: 677 nm; absorption at 690 nm relative to UVmax ([4]; wavelength 690 nm): approximately 50%
4 | C[Si](C)(CCCNC(=O)CCCCC(=O)O)O[Si-2]123(O[Si](C)(C)CCCNC(=O)C(CCC[N+](CCCS(=O)(=O)O)(CCCS(=O)(=O)O)CCCS(=O)(=O)O)CCC[N+](CCCS(=O)(=O)O)(CCCS(=O)(=O)O)CCCS(=O)(=O)O)n4c5c6ccccc6c4N=C4c6ccccc6C(=[N+]41)N=c1c4ccccc4c(n12)=NC1=[N+]3C(=N5)c2ccccc21.[Na+].[Na+].[Na+].[Na+].[Na+] [Example 20] | > 100 µg/mL | – | – | – | –
5 | [Zn+2].c1ccc2c(c1)-c1nc-2nc2[n-]c(nc3nc([n-]c4nc(n1)-c1ccccc1-4)-c1ccccc1-3)c1ccccc21 [ZnPc] | – | – | – | – | ΦΔ of reference ([5]; reference in N,N-dimethylformamide): 0.67
6 | AlPcSmix | – | – | – | – | ΦΔ of reference ([5]; reference in aqueous media): 0.42
